Bounds are passed on as bounds.

This assay deals with mTOR/GbL/Raptor (mTORC1) (Homo sapiens, UniProt P42345). The assay is described as follows: mTOR/GbL/Raptor (mTORC1) ELISA assay, phosphorylation of 4E-BP1. Format: biochemical. Particulars: 0.2 nM mTORC1, 40 uM ATP, 50 nM NHis-tagged 4E-BP1, 120 minutes; read-out: IC50 in this assay (mTORC1 ELISA). In outline: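 Phospho-4E-BP1 was quantified by luminescent ELISA (anti-phospho-4E-BP1 IgG, HRP-tagged secondary) after capture of the His-tagged substrate on Ni-chelate plates.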
With `COCCc1c(C)nc(C)nc1N1CCOc2c(C)cc(-c3cnc4sc(N)nc4c3)cc2C1` [Compound 132, 6-(4-{2,6-dimethyl-5-[2-(methyloxy)ethyl]pyrimidin-4-yl}-9-methyl-2,3,4,5-tetrahydro-1,4-benzoxazepin-7-yl)[1,3]thiazolo[5,4-b]pyridin-2-amine], the IC50 is at most 100 nM.

As to `Cc1cc(-c2cnc3sc(N)nc3c2)cc2c1OCCN(c1nc(CN(C)C(C)(C)C)nc(C)c1C(C)C)C2` [Compound 100, 6-{4-[2-{[(1,1-dimethylethyl)(methyl)amino]methyl}-6-methyl-5-(1-methylethyl)pyrimidin-4-yl]-9-methyl-2,3,4,5-tetrahydro-1,4-benzoxazepin-7-yl}[1,3]thiazolo[5,4-b]pyridin-2-amine], the IC50 lay within 100 to 500 nM. To `CCCc1c(C)nc(N)nc1N1CCOc2c(C)cc(-c3cnc4sc(N)nc4c3)cc2C1` [Compound 41, 6-[4-(2-amino-6-methyl-5-propylpyrimidin-4-yl)-9-methyl-2,3,4,5-tetrahydro-1,4-benzoxazepin-7-yl][1,3]thiazolo[5,4-b]pyridin-2-amine] belongs at most 100 nM. Regarding `C=Cc1c(Cl)nc(N)nc1N1CCOc2c(C)cc(-c3cnc4sc(N)nc4c3)cc2C1` [Compound 40, 6-[4-(2-amino-6-chloro-5-ethenylpyrimidin-4-yl)-9-methyl-2,3,4,5-tetrahydro-1,4-benzoxazepin-7-yl][1,3]thiazolo[5,4-b]pyridin-2-amine], the IC50 was at most 100 nM. The figure for `CCn1cc(-c2cc(C)c3c(c2)CN(c2nc(N)nc(C)c2C(C)C)CCO3)cn1` [Compound 111, 4-[7-(1-ethyl-1H-pyrazol-4-yl)-9-methyl-2,3-dihydro-1,4-benzoxazepin-4(5H)-yl]-6-methyl-5-(1-methylethyl)pyrimidin-2-amine] is 100 to 500 nM; for `COCCc1cnc(C)nc1N1CCOc2c(C)cc(-c3cnc4sc(N)nc4c3)cc2C1` [Compound 135, 6-(9-methyl-4-{2-methyl-5-[2-(methyloxy)ethyl]pyrimidin-4-yl}-2,3,4,5-tetrahydro-1,4-benzoxazepin-7-yl)[1,3]thiazolo[5,4-b]pyridin-2-amine] it is at most 100 nM; for `Cc1nc2ccc(-c3cc(C)c4c(c3)CN(c3ncnc5ccc(I)cc35)CCO4)cc2[nH]1` [Compound 47, 4-(6-iodoquinazolin-4-yl)-9-methyl-7-(2-methyl-1H-benzimidazol-6-yl)-2,3,4,5-tetrahydro-1,4-benzoxazepine] it is 100 to 500 nM.

With `COCCOc1nc(C)c(C(C)C)c(N2CCOc3c(C)cc(-c4cnc5sc(N)nc5c4)cc3C2)n1` [Compound 154, 6-{9-methyl-4-[6-methyl-5-(1-methylethyl)-2-{[2-(methyloxy)ethyl]oxy}pyrimidin-4-yl]-2,3,4,5-tetrahydro-1,4-benzoxazepin-7-yl}[1,3]thiazolo[5,4-b]pyridin-2-amine], the IC50 is at most 100 nM. To `COc1ncc(-c2cc(C)c3c(c2)CN(c2nc(N)nc(C)c2C(C)C)CCO3)cn1` [Compound 82, 4-methyl-5-(1-methylethyl)-6-{9-methyl-7-[2-(methyloxy)pyrimidin-5-yl]-2,3-dihydro-1,4-benzoxazepin-4(5H)-yl}pyrimidin-2-amine] belongs 100 to 500 nM; to `CNc1nc(-c2cc(C)c3c(c2)CN(c2nc(N)nc(C)c2C(C)C)CCO3)cs1` [Compound 112, 4-methyl-5-(1-methylethyl)-6-{9-methyl-7-[2-(methylamino)-1,3-thiazol-4-yl]-2,3-dihydro-1,4-benzoxazepin-4(5H)-yl}pyrimidin-2-amine], 100 to 500 nM; to `CCc1nc(N)nc(N2CCOc3c(C)cc(-c4cnc5sc(N)nc5c4)cc3C2)c1C(C)C` [Compound 56, 6-{4-[2-amino-6-ethyl-5-(1-methylethyl)pyrimidin-4-yl]-9-methyl-2,3,4,5-tetrahydro-1,4-benzoxazepin-7-yl}[1,3]thiazolo[5,4-b]pyridin-2-amine], at most 100 nM. To `Cc1cc(-c2cnc3sc(N)nc3c2)cc2c1OCCN(c1nc(CN(C)C)ncc1CC(F)(F)F)C2` [Compound 60, 6-(4-{2-[(dimethylamino)methyl]-5-(2,2,2-trifluoroethyl)pyrimidin-4-yl}-9-methyl-2,3,4,5-tetrahydro-1,4-benzoxazepin-7-yl)[1,3]thiazolo[5,4-b]pyridin-2-amine] belongs 100 to 500 nM; to `Cc1cc(-c2cnc3sc(N)nc3c2)cc2c1OCCN(c1nc(C3CCCN3C)nc(C)c1C(C)C)C2` (centres unmarked) [Compound 149, 6-{9-methyl-4-[6-methyl-5-(1-methylethyl)-2-(1-methylpyrrolidin-2-yl)pyrimidin-4-yl]-2,3,4,5-tetrahydro-1,4-benzoxazepin-7-yl}[1,3]thiazolo[5,4-b]pyridin-2-amine], at most 100 nM. The figure for `Cc1cc(-c2cnc3sc(N)nc3c2)cc2c1OCCN(c1ncc(C#N)c(N)n1)C2` [Compound 26, 4-amino-2-[7-(2-amino[1,3]thiazolo[5,4-b]pyridin-6-yl)-9-methyl-2,3-dihydro-1,4-benzoxazepin-4(5H)-yl]pyrimidine-5-carbonitrile] is 100 to 500 nM.

For `Cc1cc(-c2cnc3sc(N)nc3c2)cc2c1OCCN(c1nc(N)nc(C)c1C(C)C)C2` [Compound 3, 6-{4-[2-amino-6-methyl-5-(1-methylethyl)pyrimidin-4-yl]-9-methyl-2,3,4,5-tetrahydro-1,4-benzoxazepin-7-yl}[1,3]thiazolo[5,4-b]pyridin-2-amine], the 50% inhibitory concentration (IC50) was at most 100 nM.

For the compound `Cc1cc(-c2cnc3sc(N)nc3c2)cc2c1OCCN(c1ncc(F)c(N)n1)C2` [Compound 35, 6-[4-(4-amino-5-fluoropyrimidin-2-yl)-9-methyl-2,3,4,5-tetrahydro-1,4-benzoxazepin-7-yl][1,3]thiazolo[5,4-b]pyridin-2-amine], the half-maximal inhibitory concentration (IC50) was 100 to 500 nM. In the case of `CC(=O)c1c(C)ncnc1N1CCOc2c(C)cc(-c3cnc4sc(N)nc4c3)cc2C1` [Compound 125, 1-{4-[7-(2-amino[1,3]thiazolo[5,4-b]pyridin-6-yl)-9-methyl-2,3-dihydro-1,4-benzoxazepin-4(5H)-yl]-6-methylpyrimidin-5-yl}ethanone], the half-inhibitory concentration (IC50) was at most 100 nM.

Turning to `Cc1cc(-c2cnc3sc(N)nc3c2)cc2c1OCCN(c1nc(CN3CCCC3)ncc1C(C)C)C2` [Compound 92, 6-{9-methyl-4-[5-(1-methylethyl)-2-(pyrrolidin-1-ylmethyl)pyrimidin-4-yl]-2,3,4,5-tetrahydro-1,4-benzoxazepin-7-yl}[1,3]thiazolo[5,4-b]pyridin-2-amine], the IC50 was at most 100 nM. To `Cc1cc(-c2cccc(C(N)=O)c2)cc2c1OCCN(c1nc(N)nc(C)c1C(C)C)C2` [Compound 77, 3-{4-[2-amino-6-methyl-5-(1-methylethyl)pyrimidin-4-yl]-9-methyl-2,3,4,5-tetrahydro-1,4-benzoxazepin-7-yl}benzamide] belongs 100 to 500 nM. The figure for `COc1cc(-c2cnc3sc(N)nc3c2)cc2c1OCCN(c1nc(N)nc(C)c1C(C)C)C2` [Compound 140, 6-{4-[2-amino-6-methyl-5-(1-methylethyl)pyrimidin-4-yl]-9-(methyloxy)-2,3,4,5-tetrahydro-1,4-benzoxazepin-7-yl}[1,3]thiazolo[5,4-b]pyridin-2-amine] is 100 to 500 nM.

A word on the IC50: it is the concentration that gives 50% inhibition.

The record behind these values is patent US20140107100A1, “Benzoxazepines as Inhibitors of PI3K/mTOR and Methods of Their Use and Manufacture” (EXELIXIS, INC., priority 2010, published 2014).
